Data: patent US10597649B2, “Tau protease compositions and methods of use” (Oligomerix, Inc., priority 2011, dated 2020)

Assays:
[1] = tested on: Tau 4R2N (amino acids 335-353) peptide substrate; test: Peptide digest HPLC assay of tau protease activity; format: biochemical, human; conditions: with 11 μg tau trimer protease, 20 hr at 37° C.
Description: N-terminal sequencing of fragments using mass spectrometry identified autoproteolytic cut sites. In particular, cutting at the Lys340-Ser341 (340KS341) cut site occurred readily. Therefore, a 19-amino acid peptide corresponding to amino acids 335G to 353L of tau protein was synthesized that contained the KS cut site (340KS341). The reaction was monitored by reverse-phase high-pressure liquid chromatography (HPLC). […] An asterisk marks a non-specific contaminant that was used as a marker. […] 10 μg of tau peptide 335-353 ([…]) (SEQ ID NO:19) was custom synthesized by Genscript (Piscataway, N.J., USA) and 1 mg was dissolved in 1 mL of buffer (25 mM Tris-HCl pH 7.4). […] 32Karat™ LC-CE System, Beckman Coulter, Inc., (Indianapolis, Ind.)] using a linear gradient of acetonitrile in 0.1% TFA 0-60% acetonitrile on an analytical C18 column (12.5 cm×2.1 mm, 5 μm, (Supelco, Bellefonte, Pa., USA). 30 μg of peptide was incubated without tau protease as a negative control and analyzed with the same method;
Cleavage of the peptide substrate for tau protease, Tau 4R2N (amino acids 335-353) […] (SEQ ID NO.19), was used to monitor activity using reverse-phase HPLC. […] The large peak in the lower trace indicated intact peptide was greatly diminished in the upper trace and replaced with two smaller peaks F1 and F2 that represent fragments generated by TP-210. […]

[2] = tested on: Human α-endorphin peptide; test: Cleavage of α-endorphin peptide (HPLC); format: biochemical; conditions: 20 hrs at 37° C.
Method: Human α-endorphin peptide [[…](SEQ ID NO:13) (Abbiotech, LLC, San Diego, Calif., USA)] was incubated at 37° C. for 20 hrs with or without […] tau 4R2N trimer protease, and analyzed by reverse phase HPLC (SystemGold® 32Karat™ LC-CE System, Beckman Coulter, Inc., Indianapolis, Ind., USA) using a linear gradient of acetonitrile in 0.1% TFA, 0-60% acetonitrile on an analytical C18 column (12.5 cm×2.1 mm, 5 μm (Supelco). The peptide was hypothesized to be cut by tau protease because it contains Lys-Ser in its sequence which is found at autocatalytic cleavage sites in tau. Two fragment peaks were produced as predicted by tau 4R2N trimer protease. […] The asterisk indicates an artifactual peak unrelated to the peptide;
12 μg of α-endorphin peptide (Anaspec, Fremont, Calif.) was incubated with 1.2 μg of tau 4R/2N trimer in reaction buffer (25 mM Tris-HCl pH 7.4) for 20 hrs at 37° C. Reverse phase HPLC was used to monitor the cleavage of the peptide. […] The asterisk indicates an artifact peak that is derived from the incubation tube.

[3] = tested on: Human APP 667-676 peptide; test: Cleavage of APP 667-676 peptide (HPLC); format: biochemical; conditions: 20 hr at 37° C.
Method: Human APP 667-676 peptide [[…](SEQ ID NO:14) (Anaspec, Fremont, Calif., USA)] was incubated 20 hr at 37° C. with or without […] tau 4R2N trimer protease and analyzed by reverse phase HPLC (SystemGold® 32Karat™ LC-CE System, Beckman Coulter, Inc.) using a linear gradient of 0 to 60% acetonitrile in 0.1% TFA on an analytical C18 column (12.5 cm×2.1 mm, […], Supelco). […] The asterisk indicates an artifactual peak unrelated to the peptide. Tau 4R2N trimer protease cut APP at the penultimate amino acid adjacent to the β-secretase (BACE) cut site thereby generating Aβ(1-42). Tau protease activity has been observed extracellularly in the CSF. Generation of Aβ(1-42) can stimulate inflammation within a neuron leading to BACE up-regulation. Furthermore Aβ(1-42) has been observed in plaques and can be converted to Aβ(1-42) by BACE cleavage of the N-terminal methionine. The implications are that tau protease may be the initial activation step for the amyloid cascade;

[4] = tested on: tubulin; test: Cleavage of tubulin by tau 4R2N trimer (SDS-PAGE); format: biochemical; conditions: 19.25 hrs at 37° C.
Method: In a result not shown, tau 4R2N trimer cut tubulin. In that study, Lane 1—tubulin, no incubation; Lane 2—tubulin incubated without tau; Lane 3—tubulin with tau 4R/2N trimer, no incubation; Lane 4—tubulin incubated with tau 4R2N trimer. […] Incubation of tubulin with tau4R2N trimer led to the formation of tubulin fragments and degradation of tubulin dimer.
Lyophilized tubulin (Cat# TL238, Cytoskeleton Inc.) was suspended in 200 μL buffer for 6 mg/mL solution. Samples were incubated for 19.25 hrs at 37° C. 10 μL 2× Laemmli sample buffer (BME) was added to each sample. Samples heated at 95° C. for 5 min in a thermal cycler with heated lid 5 min prior to loading.

Substance: tau 4R2N trimer: purified disulfide-mediated trimer species of recombinant human tau 4R2N
- completeness of the peptide cleavage reaction [1]: more than 90%
- cutting of α-endorphin peptide [2]: cuts α-endorphin peptide
- cutting of APP 667-676 peptide [3]: cuts APP 667-676 peptide
- cutting of tubulin [4]: cut tubulin
